Laboratory results reported in patent US10656162B2, “Use of glu-tubulin as a biomarker of drug response to furazanobenzimidazoles” (Basilea Pharmaceutica AG, priority 2011, dated 2020).

How the values were obtained:
Type in all cases: cell-based, human
[1] = test system: A549 BAL27862-resistant cell line variant; experiment: Crystal Violet assay, BAL27862-resistant A549 versus parental line; conditions: A549, 72 hours, Crystal Violet
From the text: (§1) BAL27862-resistant sublines of human non-small cell lung cancer (H460 ATCC reference HTB-177; A549 ATCC reference CCL-185), ovarian cancer (SKOV3 ATCC reference HTB-77) lines were generated by long-term selection in complete cell culture medium (RPMI-1640 containing 10% FCS; Sigma-Aldrich) by stepwise increasing concentrations of BAL27862. […] The resistant sublines were expanded at the highest tolerated BAL27862 concentration and subsequently frozen and stored in liquid nitrogen.
(§2) After medium was removed, cells were fixed and stained by adding 50 μl Crystal Violet Staining (0.2% Crystal Violet in 50% Methanol) per well. Plates were incubated for 1 hour at room temperature. Subsequently the stain was decanted and plates were washed 4 times with double-distilled water. Plates were air-dried for several hours. Stain was dissolved by adding 100 μl buffer (0.1 M Tris pH 7.5, 0.2% SDS, 20% Ethanol) per well and shaking the plates. Absorbance at 590 nm was measured using a SpectraMax M2e plate reader (Molecular Devices). Anti-proliferative IC50 values were calculated from concentration response curves using GraphPad Prism software. Resistance factors were calculated as a ratio of BAL27862 IC50 in the resistant line variant versus the IC50 in the parental line.

[2] = test system: H460 BAL27862-resistant cell line variant; experiment: Crystal Violet assay, BAL27862-resistant H460 versus parental line; conditions: H460, 72 hours, Crystal Violet
From the text: as §1, §2

SKOV3 resistant 1 = experiment: Crystal Violet assay, SKOV3 resistant 1 versus parental line; conditions: SKOV3 resistant 1, 72 hours, Crystal Violet
From the text: as §1, §2

SKOV3 resistant 2 = experiment: Crystal Violet assay, SKOV3 resistant 2 versus parental line; conditions: SKOV3 resistant 2, 72 hours, Crystal Violet
From the text: as §1, §2

A549 NSCLC cells = experiment: Immunofluorescent staining of microtubules, A549; conditions: A549, 24 hours; 50 nM BAL27862, 80 nM Compound B, 20 nM Compound C; anti-alpha-tubulin staining
Method: A549 human non-small cell lung cancer (NSCLC, ATCC reference number CCL-185) cells, HeLa cervical cancer cells (ATCC reference number CCL-2) and SKBR3 breast carcinoma cells (ATCC reference number HTB-30) were seeded at densities of 50% on round microscope coverslips and cultured for 24 hours in RPMI-1640 containing 10% FCS (also referred to as FBS) at 37° C., 5% CO2. Compounds to be tested were dissolved in DMSO. The cell culture medium was replaced with medium containing the diluted compound(s) (paclitaxel, vinblastine, colchicine and nocodazole were purchased from Sigma-Aldrich) or vehicle. After treatment for the times indicated in the Brief Description of the Figures, coverslips were washed and cells were fixed in methanol/acetone (1:1) for 5 minutes at room temperature and subsequently incubated in blocking buffer (0.5% BSA and 0.1% TX-100 in PBS) for 30 minutes at room temperature. Specimens were then incubated with anti-alpha-tubulin (Sigma, 1:2000) for 1 hour at room temperature in blocking buffer. After several washing steps cells were incubated with AlexaFluor-488 goat-anti-mouse IgG (Molecular Probes, 1:3000) for 1 hour at room temperature followed by several washing steps with blocking buffer. Specimens were then mounted with ProLong Gold antifade (Molecular Probes, sealed with nail polish and examined with a Leica immunofluorescence microscope. Images were captured with a cooled CCD-camera and processed by ImageJ software.

[3] = test system: CXF 1103 patient-derived colorectal tumour; experiment: Colony outgrowth assay, CXF 1103; conditions: CXF 1103, colorectal cancer, ex vivo colony outgrowth
Method: (§3) Single cell suspensions of patient-derived tumour xenografts (maintained in nude mice) were prepared. For colony outgrowth assays, cells were plated in soft agar in 24-well plates according to the assay introduced by Hamburger & Salmon (Primary bioassay of human tumour stem cells, Science, 1977.197:461-463). 2×10^4-6×10^4 cells in 0.2 mL medium containing 0.4% agar were plated out on a bottom layer of 0.75% agar. Test compounds were applied in 0.2 mL culture medium. Every 24-well plate contained untreated controls and samples in triplicates. Cultures were incubated at 37° C. and 7.5% CO2 for 5-28 days. 24 hours prior to analysis, vital colonies were stained with a solution of metabolisable tetrazolium salt (Alley M C et al, Life Sci. 1982, 31:3071-3078) and were counted with an automatic image analysis system (Omnicon 3600, Biosys GmbH).
(§4) Relative drug effects were expressed by the ratio of the mean number of colonies in the treated wells and the control wells. IC70-values were determined by plotting compound concentrations versus relative colony counts.

[4] = test system: CXF 243 patient-derived colorectal tumour; experiment: Colony outgrowth assay, CXF 243; conditions: CXF 243, colorectal cancer, ex vivo colony outgrowth
Method: as §3, §4

[5] = test system: LXFE 211 Patient-derived lung tumour; experiment: Colony outgrowth assay, LXFE 211; conditions: LXFE 211, lung cancer, ex vivo colony outgrowth
Method: as §3, §4

## COc1cc2c(c(OC)c1OC)-c1ccc(OC)c(=O)cc1[C@@H](NC(C)=O)CC2 [Colchicine, colchicine]
[1]
  Resistance factors (ratio of IC50 BAL27862-resistant cell line variant and IC50 parental cell line): 0.9
[2]
  Resistance factors (ratio of IC50 BAL27862-resistant cell line variant and IC50 parental cell line): 1.6
SKOV3 resistant 1
  Resistance factors (ratio of IC50 BAL27862-resistant cell line variant and IC50 parental cell line): 2.0
SKOV3 resistant 2
  Resistance factors (ratio of IC50 BAL27862-resistant cell line variant and IC50 parental cell line): 2.8

## N#CCCNc1nonc1-c1nc2ccccc2n1CC(=O)c1ccc(N)nc1 [Compound C, 3-(4-{1-[2-(6-Amino-pyridin-3-yl)-2-oxo-ethyl]-1H-benzoimidazol-2-yl}-furazan-3-ylamino)-propionitrile]
A549 NSCLC cells
  Microtubule phenotype of mitotic or G2/M arrested cells: highly reproducible and distinct microtubule phenotype

## CC(=O)O[C@H]1C(=O)[C@@]2(C)[C@H]([C@H](OC(=O)c3ccccc3)[C@]3(O)C[C@H](OC(=O)[C@H](O)[C@@H](NC(=O)c4ccccc4)c4ccccc4)C(C)=C1C3(C)C)[C@]1(OC(C)=O)CO[C@@H]1C[C@@H]2O [Paclitaxel, paclitaxel]
[3]
  Response to compound (BAL27862, paclitaxel, vinblastine): Resistant (BAL27862-resistant tumour cells are defined by IC70 values >600 nanomolar)
[4]
  Response to compound (BAL27862, paclitaxel, vinblastine): Resistant (BAL27862-resistant tumour cells are defined by IC70 values >600 nanomolar)
[5]
  Response to compound (BAL27862, paclitaxel, vinblastine): Resistant (BAL27862-resistant tumour cells are defined by IC70 values >600 nanomolar)
[1]
  Resistance factors (ratio of IC50 BAL27862-resistant cell line variant and IC50 parental cell line): 0.06
[2]
  Resistance factors (ratio of IC50 BAL27862-resistant cell line variant and IC50 parental cell line): 0.3
SKOV3 resistant 1
  Resistance factors (ratio of IC50 BAL27862-resistant cell line variant and IC50 parental cell line): 0.4
SKOV3 resistant 2
  Resistance factors (ratio of IC50 BAL27862-resistant cell line variant and IC50 parental cell line): 0.5

## Nc1ccc(C(=O)Cn2c(-c3nonc3N)nc3ccccc32)cc1 [Compound B, 2-[2-(4-Amino-furazan-3-yl)-benzoimidazol-1-yl]-1-(4-amino-phenyl)-ethanone]
A549 NSCLC cells
  Microtubule phenotype of mitotic or G2/M arrested cells: highly reproducible and distinct microtubule phenotype
